BindingDB's records for doi:10.1074/jbc.272.51.31949 (Schering-Plough Research Institute, 1997)
Where a SMILES comes first, the peptide text is derived from it. [ ]: non-standard residue; d: D form.

Legend:
[1] = biological target: T1, Galanin receptor type 3 (Rattus norvegicus, UniProt O88626)
T1 sequence (O88626 whole entry): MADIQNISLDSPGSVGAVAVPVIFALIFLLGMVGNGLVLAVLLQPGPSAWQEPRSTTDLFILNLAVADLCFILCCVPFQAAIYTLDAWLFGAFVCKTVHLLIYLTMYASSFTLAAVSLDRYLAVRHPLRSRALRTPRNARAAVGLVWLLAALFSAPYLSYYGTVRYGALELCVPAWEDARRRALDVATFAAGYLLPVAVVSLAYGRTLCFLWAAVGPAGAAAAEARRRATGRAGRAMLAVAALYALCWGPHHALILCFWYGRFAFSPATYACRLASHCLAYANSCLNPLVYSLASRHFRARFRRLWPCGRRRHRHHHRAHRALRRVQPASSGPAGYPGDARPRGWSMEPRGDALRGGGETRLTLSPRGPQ

[2] = biological target: T2, Galanin receptor type 2 (Rattus norvegicus, UniProt O08726)
T2 sequence (O08726 whole entry): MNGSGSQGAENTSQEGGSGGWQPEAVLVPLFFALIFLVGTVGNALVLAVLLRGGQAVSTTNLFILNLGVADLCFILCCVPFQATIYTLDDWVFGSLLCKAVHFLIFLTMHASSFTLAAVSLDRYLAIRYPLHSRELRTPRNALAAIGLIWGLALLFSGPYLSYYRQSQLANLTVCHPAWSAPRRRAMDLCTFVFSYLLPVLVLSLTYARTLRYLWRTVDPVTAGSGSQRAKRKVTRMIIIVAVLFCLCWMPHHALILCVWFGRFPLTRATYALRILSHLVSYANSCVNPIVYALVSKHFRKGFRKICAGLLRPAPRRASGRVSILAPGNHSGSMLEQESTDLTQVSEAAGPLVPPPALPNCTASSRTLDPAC

Compound | Ki [1] | Ki [2]
H-LPGLPSAASSEDAGQS-NH2 [CAS_125455-59-6] | > 1000 nM | 1000 nM
CC(C)C[C@H](NC(=O)[C@H](CC(C)C)NC(=O)[C@@H](Cc1c[nH]c2ccccc12)NC(=O)[C@H](Cc1ccccc1)NC(=O)[C@@H](Cc1c[nH]c2ccccc12)NC(=O)[C@H](CCC(N)=O)NC(=O)[C@H](CCC(N)=O)NC(=O)[C@@H]1CCCN1C(=O)[C@H](CCCCN)NC(=O)[C@@H]1CCCN1C(=O)[C@@H](CCCNC(=N)N)NC(=O)[C@@H]1CCCN1C(=O)CNC(=O)[C@H](CC(C)C)NC(=O)[C@H](CC(C)C)NC(=O)[C@H](Cc1ccc(O)cc1)NC(=O)CNC(=O)[C@H](C)NC(=O)[C@H](CO)NC(=O)[C@H](CC(N)=O)NC(=O)[C@H](CC(C)C)NC(=O)[C@@H](NC(=O)[C@H](Cc1c[nH]c2ccccc12)NC(=O)CN)[C@@H](C)O)C(N)=O [Gal(1-13)-Std I] (H-GWTLNSAGYLLGP[dR]PKPQQ[dW]F[dW]LL-NH2) | 0.75 nM | –
CC[C@H](C)[C@H](NC(=O)[C@H](C)NC(=O)[C@H](Cc1cnc[nH]1)NC(=O)[C@@H]1CCCN1C(=O)CNC(=O)[C@H](CC(C)C)NC(=O)[C@H](CC(C)C)NC(=O)[C@H](Cc1ccc(O)cc1)NC(=O)CNC(=O)[C@H](C)NC(=O)[C@H](CO)NC(=O)[C@H](CC(N)=O)NC(=O)[C@H](CC(C)C)NC(=O)[C@@H](NC(=O)[C@H](Cc1c[nH]c2ccccc12)NC(=O)CN)[C@@H](C)O)C(=O)N[C@@H](CC(=O)O)C(=O)N[C@@H](CC(N)=O)C(=O)N[C@@H](Cc1cnc[nH]1)C(N)=O [Galanin rat] | 6.25 nM | 4.7 nM
H-ELEPEDEARPGGFDRLQSQDKAIRTIMEFLAFLHLKEAGAL-NH2 [GMAP (1-41)] | 1000 nM | –
CC(C)C[C@H](NC(=O)[C@H](CC(C)C)NC(=O)[C@H](Cc1ccc(O)cc1)NC(=O)CNC(=O)[C@H](C)NC(=O)[C@H](CO)NC(=O)[C@H](CC(N)=O)NC(=O)[C@H](CC(C)C)NC(=O)[C@@H](NC(=O)[C@H](Cc1c[nH]c2ccccc12)NC(=O)CN)[C@@H](C)O)C(=O)NCC(=O)N1CCC[C@H]1C(=O)N1CCC[C@H]1C(=O)N1CCC[C@H]1C(=O)NCC(=O)N[C@@H](Cc1ccccc1)C(=O)N[C@@H](CO)C(=O)N1CCC[C@H]1C(=O)N[C@@H](Cc1ccccc1)C(=O)N[C@@H](CCCN=C(N)N)C(N)=O | 7.5 nM | –
CC(C)C[C@H](NC(=O)[C@H](CC(C)C)NC(=O)[C@@H](Cc1c[nH]c2ccccc12)NC(=O)[C@@H](Cc1c[nH]c2ccccc12)NC(=O)[C@H](C)NC(=O)[C@H](NC(=O)[C@H](CC(N)=O)NC(=O)[C@H](CC(C)C)NC(=O)[C@@H](NC(=O)[C@H](Cc1c[nH]c2ccccc12)NC(=O)CN)[C@@H](C)O)[C@H](C)O)C(=O)NCC(=O)N1CCC[C@H]1C(=O)N[C@@H](Cc1cnc[nH]1)C(=O)N[C@@H](C)CO [Gal-(1-15)-ol,[d-Thr6,d-Trp8,9]] | 1000 nM | –
CCC(C)C(NC(=O)C(C)NC(=O)C(Cc1cnc[nH]1)NC(=O)C1CCCN1C(=O)CNC(=O)C(CC(C)C)NC(=O)C(CC(C)C)NC(=O)C(Cc1ccc(O)cc1)NC(=O)CNC(=O)C(C)NC(=O)C(CO)NC(=O)C(CC(N)=O)NC(=O)C(CC(C)C)NC(=O)C(NC(=O)C(Cc1c[nH]c2ccccc12)NC(=O)CN)C(C)O)C(=O)NC(CC(=O)O)C(=O)NC(CC(N)=O)C(=O)NC(Cc1cnc[nH]1)C(=O)NC(CCCN=C(N)N)C(=O)NC(CO)C(=O)NC(Cc1ccccc1)C(=O)NC(CO)C(=O)NC(CC(=O)O)C(=O)NC(CCCCN)C(=O)NC(Cc1cnc[nH]1)C(=O)NCC(=O)NC(CC(C)C)C(=O)NC(C(=O)NCC(N)=O)C(C)O (stereo unspecified) [CAS_132699-74-2] | > 1000 nM | –
CC[C@H](C)[C@H](NC(=O)[C@H](C)NC(=O)[C@H](Cc1c[nH]cn1)NC(=O)[C@@H]1CCCN1C(=O)CNC(=O)[C@H](CC(C)C)NC(=O)[C@H](CC(C)C)NC(=O)[C@H](Cc1ccc(O)cc1)NC(=O)CNC(=O)[C@H](C)NC(=O)[C@H](CO)NC(=O)[C@H](CC(N)=O)NC(=O)[C@H](CC(C)C)NC(=O)[C@@H](NC(=O)[C@@H](N)Cc1c[nH]c2ccccc12)[C@@H](C)O)C(=O)N[C@@H](CC(=O)O)C(=O)N[C@@H](CC(N)=O)C(=O)N[C@@H](Cc1c[nH]cn1)C(=O)N[C@@H](CCCNC(=N)N)C(=O)N[C@@H](CO)C(=O)N[C@@H](Cc1ccccc1)C(=O)N[C@@H](CO)C(=O)N[C@@H](CC(=O)O)C(=O)N[C@@H](CCCCN)C(=O)N[C@@H](Cc1c[nH]cn1)C(=O)NCC(=O)N[C@@H](CC(C)C)C(=O)N[C@H](C(N)=O)[C@@H](C)O [Galanin Porcine 2-29] | 12.6 nM | 1.92 nM
CC[C@H](C)[C@H](NC(=O)[C@H](C)NC(=O)[C@H](Cc1c[nH]cn1)NC(=O)[C@@H]1CCCN1C(=O)CNC(=O)[C@H](CC(C)C)NC(=O)[C@H](CC(C)C)NC(=O)[C@H](Cc1ccc(O)cc1)NC(=O)CNC(=O)[C@H](C)NC(=O)[C@H](CO)NC(=O)[C@H](CC(N)=O)NC(=O)[C@H](CC(C)C)NC(=O)[C@@H](N)[C@@H](C)O)C(=O)N[C@@H](CC(=O)O)C(=O)N[C@@H](CC(N)=O)C(=O)N[C@@H](Cc1c[nH]cn1)C(=O)N[C@@H](CCCNC(=N)N)C(=O)N[C@@H](CO)C(=O)N[C@@H](Cc1ccccc1)C(=O)N[C@@H](CO)C(=O)N[C@@H](CC(=O)O)C(=O)N[C@@H](CCCCN)C(=O)N[C@@H](Cc1c[nH]cn1)C(=O)NCC(=O)N[C@@H](CC(C)C)C(=O)N[C@H](C(N)=O)[C@@H](C)O [Galanin (3-29), rat] | 1000 nM | –
H-LLGPHAIDNHRSFSDKHGLT-NH2 [Galanin (10-29), rat] | 1000 nM | –
CC(C)C[C@H](NC(=O)[C@H](CC(C)C)NC(=O)[C@H](Cc1ccc(O)cc1)NC(=O)[C@@H](Cc1c[nH]c2ccccc12)NC(=O)[C@H](C)NC(=O)[C@H](C)NC(=O)[C@H](CC(N)=O)NC(=O)[C@H](CC(C)C)NC(=O)[C@@H](NC(=O)[C@H](Cc1c[nH]c2ccccc12)NC(=O)CN)[C@@H](C)O)C(=O)NCC(=O)N1CCC[C@H]1C(=O)N[C@@H](Cc1cnc[nH]1)C(=O)N[C@@H](C)CO [Galanin (1-15)-ol,[Ala6,D-trp8]] | 17.9 nM | –
H-GWTLNSAGYLLGPPPALALA-NH2 [M40] | 54 nM | 2.88 nM
